US20060078502A1, “Charge neutral complexes of paramagnetic metals as intracellular magnetic resonance imaging contrast agents” (priority 2004, published 2006)

Assays:
[1] = tested on: plasma lipoproteins (VLDL, LDL and HDL); assay: Kinetics of gadolinium complex binding to plasma lipoproteins; format: in vitro ADME; details: Gd-153 labeled, 60 minutes at room temperature, density gradient separation
Description: For this study, the galadolinium pyrithione complex labeled with Gd-153 was incubated directly with isolated lipoprotein particles in acetate-citrate buffer or was incubated with intact plasma for 60 minutes at room temperature. Very low, low and high-density lipoproteins (VLDL, LDL and HDL) were separated by cesium chloride density gradients (1.06 and 1.25 g/ml) in an ultracentrifuge (Beckman L8-55) in a swinging bucket rotor using standard protocols. The mixture in 4.5 ml in polyallomer tubes was spun at 210,000 g for 20 hours. The plasma proteins in the […], and layers representing each of VLDL, LDL and HDL were removed from the top of the tube by suction. The amount of gadolinium pyrithione bound to VLDL, LDL, HDL and plasma proteins was measured by counting the radioactivity in each fraction with the gamma well counter. The majority of gadolinium complexes were bound to lipoproteins. Accordingly, the gadolinium-tagged lipoprotein particles are useful to localize the sites of vulnerable plaques in patients, thus identifying the rupture-prone vulnerable plaques in the coronary or carotid arteries with MRI.

[2] = Solubility of the complex; format: physicochemical; details: 0.2 molar acetate buffer; mixture of acetate buffer and saline or human plasma
Description: A paramagnetic metal atom has one or more unpaired […], providing a half-integral “spin” quantum number. For metal complex MRI contrast agents, the MRI relaxation efficiency per molecule depends on the nature of the metal in the chelate complex and the size of the metal chelate complex. These contrast agents serve as relaxation sinks for the protons of adjacent water molecules. The metal complex lattice receives the energy from the protons excited by radiofrequency (RF) pulses. […] This facilitates energy transfer, and provides increased imaging efficiency. The complexes of the present invention are soluble in lipids and provide relaxivities in the range 50-150 millimole^−1 second^−1. The gadolinium complexes of this invention, for instance, provide T1 relaxivity values of 80 per millimole per second and T2 values of 93 millimole^−1 second^−1. The complexes of the present invention are thus particularly useful as intra-cellular MRI contrast agents.
(§1) This formulation is found to be stable after one year of storage in the refrigerator. It is soluble in 0.2 molar acetate buffer, in a mixture of acetate buffer and saline or human plasma facilitating the storage of Gd-complex, its transport and control of reconstitution by adjustment of injectate volume, and its use in cell-tagging and administration of tagged cells.

human neutrophils = assay: Kinetics of complex loading into cells; format: cell-based; details: 37° C., neutrophils in donor plasma, 3.7 mg gadolinium
Description: Kinetics of Complex Loading into Cells. For this study, human neutrophils were obtained from a single donor and suspended in 50 microliters of the same donor's plasma in a series of test tubes. The neutrophils were incubated at 37° C. with gadolinium pyrithione complex in a shaker bath. The amount of gadolinium pyrithione used for each test tube provided 3.7 mg of gadolinium, which was added to the test tube in 250 microliters of acetate buffer. After various incubation times, the neutrophil cells were centrifuged, washed with buffer and the amount of neutrophil-bound gadolinium was calculated.

C3H mouse = assay: MRI processing and imaging of a mouse after intravenous administration; format: in vivo
Description: A Bruker 7.0 Tesla MRI System (BioSpin MRI Gmbh, Avance) operated at 300 MHz was used in this study. The system parameters are optimized for high resolution imaging with either T1-weighted (Gd-complexes) or T2-weighted agents (Fe-complexes). The mouse was placed on a stereotactic holder with a prone position. The holder stayed in the center of the 32 mm bore of the transmitter-receiver RF coil. The tail-vein was cannulated with a 27-29 G needle for delivery of contrast agents via slow infusion. 0.2 ml of 6 μM of the gadolium pyrithione complex was administered per dose. Two doses were administered 27 minutes apart. After acquisition of scout images, T1-weighted data were acquired with a spoiled gradient echo sequence, T1=100 to 700 ms, for example, 200 ms, TR (repetition time)=10 to 500 ms, for example, 13 ms, TE (echo time)=5 to 10 ms, for example, 6 ms, and flip angle=60-90 degree. Data were acquired before and after injection of contrast media to evaluate the reduction of tissue T1-values from 500-700 ms to 100-200 ms with the Gd-complexes or Gd-tagged cells.
FIG. 1 presents a T1-weighted MR image (coronal slice, 1 mm thickness) of the C3H mouse at 3 minutes after the second intravenous administration of Gd-(tris)pyrithione complex, providing an image at 3 and 30 minutes post administration. […] The conclusion that the complex is stable is reached because, unstable Gd-complexes hydrolyze and Gd-colloids form and localize in the macrophage pool of reticuloendothelial system of liver, spleen and bone marrow.

[3] = Storage stability of the complex (solution formulation, lyophilized); format: physicochemical; details: after one year of storage in the refrigerator; acetate-dextrose buffer, pH 6.4
Description: The contrast agent of the invention can be packaged into kit form. Conveniently, the complexes are formed as described herein, sterilized, filled into sterile bottles and then freeze-dried (lyophilized). The lyophilized complex is stable when stored for at least one year at 4° C. The lyophilized complex is reconstituted in acetate buffer (about 0.2 M NaOAc, pH 6.0 to 6.4) to the desired concentration for injection for use.
Fifty microliters of the gadolinium chloride solution is mixed with 250-400 microliters of the pyrithione solution. A white precipitate of gadolinium pyrithione complex is formed, which is vortexed for good mixing. The gadolinium pyrithione complex is dissolved in 1250 microliters of 0.2 molar acetate-dextrose buffer. The final pH is adjusted to 6.4 with a pH electrode (Beckman-Coulter). The osmolarity of the solution is checked by the freezing point method to 275 mOsmole. The gadolinium pyrithione complex solution is sterilized by membrane filtration (0.22 micrometer filter) and stored in a refrigerator.
as §1

[Gd+3].[O-][n+]1ccccc1[S-].[O-][n+]1ccccc1[S-].[O-][n+]1ccccc1[S-] [gadolinium pyrithione complex, gadolinium (tris)pyrithione]
fraction of complex bound to lipoproteins [1]: majority | solubility [2]: soluble | Gadolinium (% in cells) (human neutrophils; incubation time 05 minutes): 99.21% | Gadolinium (% in cells) (human neutrophils; incubation time 10 minutes): 99.75% | Gadolinium (% in cells) (human neutrophils; incubation time 30 minutes): 99.36% | Gadolinium (% in cells) (human neutrophils; incubation time 45 minutes): 99.11% | imaging of liver, spleen and bone marrow (reticuloendothelial system) (C3H mouse; 3 and 30 minutes post administration): None of these tissues were imaged | in vivo stability of the agent (C3H mouse; C3H mouse, intravenous, two doses 27 minutes apart, T1-weighted MRI): stable | localization in late phase (C3H mouse; thirty minutes after the first administration): bladder | localization in early phase post-IV injection (C3H mouse; three minutes after the second administration): heart | stability of formulation on storage [3]: stable
